Assay [1] has as its system hGLP-1R mutant Asn318 to alanine. Also noted: method as in PMID 23479653. Conditions: Asn318 mutated to alanine, cell surface expression unchanged; cited from earlier work.
The subject of assay [2] is zfGPCR (dual zfGLP-1R/GCGR). Put plainly: Competitive binding, displacement of 125I-exendin(9–39) from recombinant zfGPCR expressed in COS-7 cells. Details: species or system zebrafish (Danio rerio). The conditions noted are these: 125I-exendin(9–39) tracer, intact COS-7 cells, 16–18 h at 4°C, triplicate wells, NSB with 1 μM peptide, n = 4 zfGLP-1, n = 3 hGLP-1, zf glucagon, exendin-4, n = 5 exendin(9–39). 95% CI: zfGLP-1 225–371, hGLP-1 121–262, zf glucagon 78.5–144, h glucagon 33.6–134, exendin-4 0.84–1.17, exendin(9–39) 3.42–5.17. The method, then: (§1) Competitive binding experiments were performed with the recombinant zfGPCR expressed in COS-7 cells, as described previously. Transient transfections of pcDNA3 vector containing recombinant zfGPCR into COS-7 cells were performed as described below for the stimulation of intracellular cAMP. Cells were grown in 100-mm plates to confluence and 24 hr after transfection they were trypsinized and transferred to 24 well plates (Biocore, Becton Dickinson). 24–48 hr later each peptide (pM to μM) was added in triplicate wells followed by the addition of an aliquot (100,000 cpm/well) of either ^125I-hGLP-1(7–36)amide or ^125I-exendin(9–39) (each radioactive peptide tracer at […] receptor grade, NEN Life Science Products, Boston, MA). Peptides, radioiodinated ^125I-tracer and cells were incubated for 16–18 h at 4°C. After incubation cells were washed twice with ice-cold PBS, lysed with 1N NaOH and radioactivity measured in a γ-counter. A single dose-displacement curve for each peptide was obtained in a single 24-well plate.
Non-specific binding was determined in the presence of 1μM of each peptide.
(§2) IC50 values represent an average of n experiments as described above and were calculated by the Prism 4 software. Displacement curves from the competitive binding experiments were plotted by Origin 9 software (OriginLab). Error bars are shown for data points in the displacement curves obtained in two or more rounds of transfections.
(§3) Results from the functional experiments with recombinant zfGPCR transiently expressed in COS-7 cells were analyzed by the Prism 4 software using a four-parameter logistic sigmoidal curve fit model. Data points represent mean +/- SEM.
They are shown together with the 95% confidence intervals (CIs). The F-test was used to compare the IC50 value for zfGLP-1 with the IC50 values for the other tested peptides obtained in the competitive binding experiments shown when ^125I-hGLP-1(7–36)amide or ^125I-exendin (9–39) were used as tracers. Following conditions were used for the curve fitting: (i) in the normalization step y = 0%was set to be 0, y = 100% was set to be 100; (ii) constrained curve-fit parameters were set to be equal to 0.00 on the bottom, 100 on top; (iii) IC50 was not constrained; (iv) the selected option in the non-linear regression curve fit was intended on finding out whether the best-fit of a selected parameter (IC50) differs between two sets.

In assay [3] the test system is zfGPCR (dual zfGLP-1R/GCGR). The conditions noted are these: cited from earlier work. The method, then: Furthermore, exendin-4, an agonist of hGLP-1R, displaced in competitive binding experiments the binding of ^125I-hGLP-1(7–36) amide to the zebrafish receptor with an IC50 of 0.9 nM, which is within a similar concentration range as the one determined in competitive binding experiments with recombinant hGLP-1R [41] and rGLP-1R [23]. However, subsequent phylo ...

Assay [4] relates to hGLP-1R mutant Ser155 to alanine. The conditions noted are these: Ser152 in hGCGR = Ser155 in hGLP-1R, mutated to alanine; cited from earlier work. The text has this:
Among those are TM1-TM7 interaction between Ser152^1.50 and Ser 390^7.47 in which Ser152^1.50 in TM1 in hGCGR forms a hydrogen bond with the backbone of Ser390^7.47 in TM7.

The test system of assay [5] is zfGPCR (dual zfGLP-1R/GCGR). The assay is described as follows: Competitive binding, displacement of 125I-hGLP-1(7–36)amide from recombinant zfGPCR expressed in COS-7 cells. Details: species or system zebrafish (Danio rerio). Conditions: 125I-hGLP-1(7–36)amide tracer, intact COS-7 cells, 16–18 h at 4°C, triplicate wells; NSB with 1 μM peptide; n = 3 hGLP-1, n = 2 zf glucagon, exendin-4, exendin(9–39), n = 1 zfGLP-1. 95% CI: zfGLP-1 1.2–3.6; hGLP-1 0.98–13; zf glucagon 1.4–4.0; exendin-4 0.24–0.92; exendin(9–39) 2.4–14. The method, then: as §1
Dose-response curves for zfGLP-1, zfGLP-2 and zebrafish PACAP-38 were obtained from one transfection. […] Lower rounds of transfections were performed in experiments that replicated our published results from the competitive binding experiments with the displacement of ^125I-hGLP-1(7–36)amide binding to zfGPCR [41] and thus represented positive controls for these studies.
as §2, §3
They are shown together with the 95% confidence intervals (CIs). […]

Read-outs that look alike come from different tables or passages of the source.

Turning to “exendin-4: peptide exclusively found in the saliva of a lizard; agonist of GLP-1R; purchased from Bachem”, the receptor affinity entry is given as “reduced the receptor’s affinity” in assay [1] and “small reduction of receptor affinity” in assay [4]. Also, the half-inhibitory concentration (IC50) in assay [2] was 1 nM; in assay [3] (displacement of 125I-hGLP-1(7–36)amide, read-out: IC50 in competitive binding (earlier characterization of the zfGPCR)), 0.9 nM; in assay [5] it was 0.48 nM. In addition, the “IC50 (in words)” value in assay [3] (competitive binding, recombinant zfGPCR, similar to rGLP-1R and hGLP-1R) is recorded as “in the low nM range”.

The record behind these values is paper PMC5145181, “Structural Mapping and Functional Characterization of Zebrafish Class B G-Protein Coupled Receptor (GPCR) with Dual Ligand Selectivity towards GLP-1 and Glucagon” (PLoS ONE, 2016).
